Data: US9970938B2, “Use of BUBR1 as a biomarker of drug response to furazanobenzimidazoles” (Basilea Pharmaceutica AG, priority 2011, dated 2018)

Tests used:
Type in all cases: cell-based, human
A549 = assay: Crystal Violet assay of BAL27862-resistant cell line versus parental line
Description: (§1) BAL27862-resistant sublines of human non-small cell lung cancer (H460 ATCC reference HTB-177; A549 ATCC reference CCL-185), ovarian cancer (SKOV3 ATCC reference HTB-77) lines were generated by long-term selection in complete cell culture medium (RPMI-1640 containing 10% FCS; Sigma-Aldrich) by stepwise increasing concentrations of BAL27862. […] The resistant sublines were expanded at the highest tolerated BAL27862 concentration and subsequently frozen and stored in liquid nitrogen.
(§2) After medium was removed, cells were fixed and stained by adding 50 μl Crystal Violet Staining (0.2% Crystal Violet in 50% Methanol) per well. Plates were incubated for 1 hour at room temperature. Subsequently the stain was decanted and plates were washed 4 times with double-distilled water. Plates were air-dried for several hours. Stain was dissolved by adding 100 μl buffer (0.1 M Tris pH 7.5, 0.2% SDS, 20% Ethanol) per well and shaking the plates. Absorbance at 590 nm was measured using a SpectraMax M2e plate reader (Molecular Devices). Anti-proliferative IC50 values were calculated from concentration response curves using GraphPad Prism software. Resistance factors were calculated as a ratio of BAL27862 IC50 in the resistant line variant versus the IC50 in the parental line.

H460 = assay: as above
Description: as §1, §2

SKOV3 resistant 1 = assay: as above
Description: as §1, §2

SKOV3 resistant 2 = assay: as above
Description: as §1, §2

GXF251 = assay: Colony outgrowth assay, patient-derived tumour xenograft cells; set-up: key: S: BAL27862-sensitive tumour cells have IC70 values in the low nanomolar range; R: BAL27862-resistant tumour cells are defined by IC70 values >600 nanomolar; settings: Gastric
Procedure: (§3) Single cell suspensions of patient-derived tumour xenografts (maintained in nude mice) were prepared. For colony outgrowth assays, cells were plated in soft agar in 24-well plates according to the assay introduced by Hamburger & Salmon (Primary bioassay of human tumour stem cells, Science, 1977, 197:461-463). 2.0E+04-6.0E+04 cells in 0.2 mL medium containing 0.4% agar were plated out on a bottom layer of 0.75% agar. Test compounds were applied in 0.2 mL culture medium. Every 24-well plate contained untreated controls and samples in triplicates. Cultures were incubated at 37° C. and 7.5% CO2 for 5-28 days. 24 hours prior to analysis, vital colonies were stained with a solution of metabolizable tetrazolium salt (Alley M C et al, Life Sci. 1982, 31:3071-3078) and were counted with an automatic image analysis system (Omnicon 3600, Biosys GmbH).
(§4) Relative drug effects were expressed by the ratio of the mean number of colonies in the treated wells and the control wells. IC70-values were determined by plotting compound concentrations versus relative colony counts.

GXF97 = assay: as above; set-up: key: S: BAL27862-sensitive tumour cells have IC70 values in the low nanomolar range; R: BAL27862-resistant tumour cells are defined by IC70 values >600 nanomolar; settings: Gastric
Procedure: as §3, §4

LXFA629 = assay: as above; set-up: key: S: BAL27862-sensitive tumour cells have IC70 values in the low nanomolar range; R: BAL27862-resistant tumour cells are defined by IC70 values >600 nanomolar; settings: Lung
Procedure: as §3, §4

LXFL529 = assay: as above; set-up: key: S: BAL27862-sensitive tumour cells have IC70 values in the low nanomolar range; R: BAL27862-resistant tumour cells are defined by IC70 values >600 nanomolar; settings: Lung
Procedure: as §3, §4

A549 NSCLC cells = assay: Immunofluorescent staining of microtubules in cultured cells
Procedure: (§5) A549 human non-small cell lung cancer (NSCLC, ATCC reference number CCL-185) cells, HeLa cervical cancer cells (ATCC reference number CCL-2) and SKBR3 breast carcinoma cells (ATCC reference number HTB-30) were seeded at densities of 50% on round microscope coverslips and cultured for 24 hours in RPMI-1640 containing 10% FCS (also referred to as FBS) at 37° C., 5% CO2. Compounds to be tested were dissolved in DMSO. The cell culture medium was replaced with medium containing the diluted compound(s) (paclitaxel, vinblastine, colchicine and nocodazole were purchased from Sigma-Aldrich) or vehicle. After treatment, coverslips were washed and cells were fixed in methanol/acetone (1:1) for 5 minutes at room temperature and subsequently incubated in blocking buffer (0.5% BSA and 0.1% TX-100 in PBS) for 30 minutes at room temperature. Specimens were then incubated with anti-alpha-tubulin antibody (Sigma, 1:2000) for 1 hour at room temperature in blocking buffer. After several washing steps cells were incubated with AlexaFluor-488 goat-anti-mouse IgG (Molecular Probes, 1:3000) for 1 hour at room temperature followed by several washing steps with blocking buffer. Specimens were then mounted with ProLong Gold antifade (Molecular Probes), sealed with nail polish and examined with a Leica immunofluorescence microscope. Images were captured with a cooled CCD-camera and processed by ImageJ software.

[1] = tested on: HeLa cervical cancer cells; assay: as above; settings: 24 hours, 50 nM
Procedure: as §5

[2] = tested on: SKBR3 breast cancer cells; assay: as above; settings: 24 hours, 50 nM
Procedure: as §5

N#CCCNc1nonc1-c1nc2ccccc2n1CC(=O)c1ccc(N)cc1 [BAL27862, 3-(4-{1-[2-(4-Amino-phenyl)-2-oxo-ethyl]-1H-benzoimidazol-2-yl}-furazan-3-ylamino)-propionitrile]
resistance factors versus parental lines (based on IC50 determinations) (A549): 3.0 fold
resistance factors versus parental lines (based on IC50 determinations) (H460): 5.3 fold
resistance factors versus parental lines (based on IC50 determinations) (SKOV3 resistant 1): 7.6 fold
resistance factors versus parental lines (based on IC50 determinations) (SKOV3 resistant 2): 11.6 fold
Sensitive (S)/Resistant (R), by IC70 in colony outgrowth (GXF251): S
Sensitive (S)/Resistant (R), by IC70 in colony outgrowth (GXF97): R (BAL27862-resistant tumour cells are defined by IC70 values >600 nanomolar)
Sensitive (S)/Resistant (R), by IC70 in colony outgrowth (LXFA629): R (BAL27862-resistant tumour cells are defined by IC70 values >600 nanomolar)
Sensitive (S)/Resistant (R), by IC70 in colony outgrowth (LXFL529): S
microtubule phenotype of mitotic or G2/M arrested cells (A549 NSCLC cells; 24 hours treatment, anti-alpha-tubulin staining): highly reproducible and distinct microtubule phenotype
microtubule phenotype, BAL27862 added for the last 4 hours of 24 hours vinblastine, colchicine, paclitaxel or nocodazole treatment (A549 NSCLC cells; combination): disruption of the microtubule structures
microtubule phenotype of mitotic or G2/M arrested cells [1]: highly reproducible and distinct microtubule phenotype
microtubule phenotype of mitotic or G2/M arrested cells [2]: highly reproducible and distinct microtubule phenotype
